# Experimental data taken from patent publication US20230181614A1, “ADMINISTRATION OF CITICOLINE TO IMPROVE COGNITIVE PERFORMANCE, ATTENTIONAL PERFORMANCE, AND MOTOR FUNCTION” (KYOWA HAKKO BIO CO., LTD., priority 2014, published 2023).
# Experiments:
# [1] = system: Healthy subjects, ages 13-18; assay: Children's Depression Rating Scale (CDRS); format: in vivo, human; conditions: for CDRS Score, Mean: V3-V1
# Excerpt: Study participants were screened by telephone prior to study enrollment. Healthy subjects, ages 13-18, with no significant medical conditions and no history of co-morbid psychiatric disorder, current Axis I or II diagnosis, or previous participation in a pharmacotherapeutic trial, were selected. Use of any psychotropic medication or any previous head injury resulting in loss of consciousness for 5 or more minutes were used as exclusion criteria. While no participant met criteria for a neuropsychiatric disorder at enrollment, clinical assessments were still completed throughout the study to evaluate changes in mood state. In addition, self-reports of sleep habits, lifestyle, and exercise routines were also administered at baseline as well as at each study visit to assess changes in health habits during study participation. Following the completion of Visit 1 assessment, participants were given their 28-day supply of citicoline (250 mg or 500 mg) or placebo, which was randomly assigned. They were instructed to take one capsule a day every day for the next 28 days. Visit 2 occurred fourteen days after Visit 1. At Visit 2, the remaining study pills were counted and participant dosage calendars were checked to ensure compliance with the protocol. Additional neuropsychological measures and clinical assessments were administered during this visit. Participants returned for Visit 3 fourteen days later, on the 28th day of their study participation. The pill bottle and the dosage calendar were collected from each participant. Urine and blood were again obtained. Participants also participated in similar clinical and neuropsychological testing and clinical measures that were given during visit 1. The CDRS is an investigator-administered scale that are widely used as observational measures of depressive symptoms in children. The scale was administered at each of the three visits to assess presence or absence of depressive symptoms.
# [2] = system: Healthy subjects, ages 13-18; assay: Ruff 2 & 7 test (visual attention); format: in vivo, human; conditions: for Ruff 2 & 7 Accuracy Difference Score V1 (Mean) / Ruff 2 & 7 Speed Difference Score V1 (Mean) / Ruff 2 & 7 Total Accuracy T Score V1 (Mean) / Ruff 2 & 7 Total Difference Score V1 (Mean) / Ruff 2 & 7 Total Speed T Score V1 (Mean): Visit 1; for Ruff 2 & 7 Accuracy Difference Score V3 (Mean) / Ruff 2 & 7 Speed Difference Score V3 (Mean) / Ruff 2 & 7 Total Accuracy T Score V3 (Mean) / Ruff 2 & 7 Total Difference Score V3 (Mean) / Ruff 2 & 7 Total Speed T Score V3 (Mean): Visit 3
# Excerpt: Study participants were screened by telephone prior to study enrollment. Healthy subjects, ages 13-18, with no significant medical conditions and no history of co-morbid psychiatric disorder, current Axis I or II diagnosis, or previous participation in a pharmacotherapeutic trial, were selected. Use of any psychotropic medication or any previous head injury resulting in loss of consciousness for 5 or more minutes were used as exclusion criteria. While no participant met criteria for a neuropsychiatric disorder at enrollment, clinical assessments were still completed throughout the study to evaluate changes in mood state. In addition, self-reports of sleep habits, lifestyle, and exercise routines were also administered at baseline as well as at each study visit to assess changes in health habits during study participation. Following the completion of Visit 1 assessment, participants were given their 28-day supply of citicoline (250 mg or 500 mg) or placebo, which was randomly assigned. They were instructed to take one capsule a day every day for the next 28 days. Visit 2 occurred fourteen days after Visit 1. At Visit 2, the remaining study pills were counted and participant dosage calendars were checked to ensure compliance with the protocol. Additional neuropsychological measures and clinical assessments were administered during this visit. Participants returned for Visit 3 fourteen days later, on the 28th day of their study participation. The pill bottle and the dosage calendar were collected from each participant. Urine and blood were again obtained. Participants also participated in similar clinical and neuropsychological testing and clinical measures that were given during visit 1. The Ruff 2 & 7 measures two aspects of visual attention: sustained attention and selective attention. There are a series of 20 trials involving visual searching in which the respondent detects and marks through all given stimuli the digits “2” and “7”. In the 10 Automatic Detection trials, the target digits are embedded among alphabetical letters that serve as distractors. In the 10 Controlled Search trials, the target digits are embedded among other numbers that serve as distractors. Correct hits and errors are counted for each trial and serve as the basis for scoring the test. Accuracy scores evaluate the number of targets identified in relation to the number of possible targets. The Ruff 2 & 7 was administered at all three visits.
# [3] = 250 mg/day group, visit difference score V3-V1
# [4] = 500 mg/day group, visit difference score V3-V1
compound,measurement,setting,value
"C[N+](C)(C)CCOP(=O)(O)OP(=O)([O-])OC[C@H]1O[C@@H](n2ccc(N)nc2=O)[C@H](O)[C@@H]1O [citicoline, Cytidine 5′-diphosphocholine]","CDRS, Mean","[1]; 250 mg/day, V1 (baseline)",16.89
same,"CDRS, Mean","[1]; 250 mg/day, V3 (day 28)",16.22
same,"CDRS Score, Mean",[1]; 250 mg/day,-0.67
same,"CDRS, Mean","[1]; 500 mg/day, V1 (baseline)",16.33
same,"CDRS, Mean","[1]; 500 mg/day, V3 (day 28)",16.08
same,"CDRS Score, Mean",[1]; 500 mg/day,-0.25
same,Ruff 2 & 7 Accuracy Difference Score V1 (Mean),[2]; 250 mg/day group,0.02
same,Ruff 2 & 7 Speed Difference Score V1 (Mean),[2]; 250 mg/day group,0.01
same,Ruff 2 & 7 Total Accuracy T Score V1 (Mean),[2]; 250 mg/day group,47.41
same,Ruff 2 & 7 Total Difference Score V1 (Mean),[2]; 250 mg/day group,0.01
same,Ruff 2 & 7 Total Speed T Score V1 (Mean),[2]; 250 mg/day group,45.74
same,Ruff 2 & 7 Accuracy Difference Score V3 (Mean),[2]; 250 mg/day group,0.01
same,Ruff 2 & 7 Speed Difference Score V3 (Mean),[2]; 250 mg/day group,0.01
same,Ruff 2 & 7 Total Accuracy T Score V3 (Mean),[2]; 250 mg/day group,53.00
same,Ruff 2 & 7 Total Difference Score V3 (Mean),[2]; 250 mg/day group,0.02
same,Ruff 2 & 7 Total Speed T Score V3 (Mean),[2]; 250 mg/day group,54.85
same,Ruff 2 & 7 Speed Difference Score V3-V1 (Mean),[2]; [3],0.00
same,Ruff 2 & 7 Total Accuracy T Score V3-V1 (Mean),[2]; [3],5.59
same,Ruff 2 & 7 Total Difference Score V3-V1 (Mean),[2]; [3],0.00
same,Ruff 2 & 7 Total Speed T Score V3-V1 (Mean),[2]; [3],9.11
same,Ruff 2 & 7 Accuracy Difference Score V1 (Mean),[2]; 500 mg/day group,0.02
same,Ruff 2 & 7 Speed Difference Score V1 (Mean),[2]; 500 mg/day group,0.01
same,Ruff 2 & 7 Total Accuracy T Score V1 (Mean),[2]; 500 mg/day group,42.71
same,Ruff 2 & 7 Total Difference Score V1 (Mean),[2]; 500 mg/day group,0.02
same,Ruff 2 & 7 Total Speed T Score V1 (Mean),[2]; 500 mg/day group,44.33
same,Ruff 2 & 7 Accuracy Difference Score V3 (Mean),[2]; 500 mg/day group,0.00
same,Ruff 2 & 7 Speed Difference Score V3 (Mean),[2]; 500 mg/day group,0.02
same,Ruff 2 & 7 Total Accuracy T Score V3 (Mean),[2]; 500 mg/day group,49.88
same,Ruff 2 & 7 Total Difference Score V3 (Mean),[2]; 500 mg/day group,0.02
same,Ruff 2 & 7 Total Speed T Score V3 (Mean),[2]; 500 mg/day group,53.75
same,Ruff 2 & 7 Accuracy Difference Score V3-V1 (Mean),[2]; [4],-0.02
same,Ruff 2 & 7 Speed Difference Score V3-V1 (Mean),[2]; [4],0.01
same,Ruff 2 & 7 Total Accuracy T Score V3-V1 (Mean),[2]; [4],7.17
same,Ruff 2 & 7 Total Difference Score V3-V1 (Mean),[2]; [4],0.01
same,Ruff 2 & 7 Total Speed T Score V3-V1 (Mean),[2]; [4],9.42
